Measured values from patent US20160000849A1, “COMPOSITION FOR REMEDYING OR TREATING RHEUMATOID ARTHRITIS AND OSTEOARTHRITIS” (HANPOONG PHARM & FOODS CO., LTD., priority 2013, published 2016).

Test system: normal 293T cells, rat chondrocytes and human chondrocytes (HTB-94)
Description: The stabilities of glucosamine-HCl, glucosamine-sulfate, celecoxib and HPL-1 were analyzed by an MTT assay using normal 293T cells, rat chondrocytes and human chondrocytes (HTB-94).

Row | Structure (SMILES) | concentration at which cytotoxicity was observed (human, rat) [ng/mL] | cytotoxicity
1 | Cc1ccc(-c2cc(C(F)(F)F)nn2-c2ccc(S(N)(=O)=O)cc2)cc1 [celecoxib] | ≥ 10000 | –
2 | Cl.N[C@H]1C(O)O[C@H](CO)[C@@H](O)[C@@H]1O (stereo partly drawn) [glucosamine-HCl] | – | no cytotoxicity was observed
3 | N[C@H]1C(O)O[C@H](CO)[C@@H](O)[C@@H]1O.O=S(=O)(O)O (stereo partly drawn) [glucosamine-sulfate] | – | no cytotoxicity was observed
